Measured values taken from ChEMBL document CHEMBL1141942, “Novel 7-methoxy-6-oxazol-5-yl-2,3-dihydro-1H-quinazolin-4-ones as IMPDH inhibitors” (Bioorg Med Chem Lett, 2005).
In brackets after ≈: the same amount, converted by molar mass.

What was measured:
[1] = target: T1, Inosine-5'-monophosphate dehydrogenase 2 (Homo sapiens, UniProt P12268); experiment: Inhibitory activity against IMPDH II
PBMC = experiment: Antiproliferative activity in PMBC; format: functional, cell-based; details: Homo sapiens
[2] = Intrinsic clearance in human liver microsomes; format: ADME, Microsome
[3] = target: T1, Inosine-5'-monophosphate dehydrogenase 2; details: 10 uM
Description: Inhibitory activity against IMPDH II at 10 uM

[4] = Solubility at pH 6.5; format: physicochemical; details: buffer

SMILES | IC50 [1] [nM] | microsomal CLint [2] [µL/min/mg] | inhibition [3] [%] | solubility [4] [µg/mL] | IC50 (PBMC) [nM]
COc1cc2c(cc1-c1cnco1)C(=O)N(C)C(C)(/C=C/c1ccccc1)N2 (stereo unspecified) | 49 |  |  |  | 3000
COc1cc2c(cc1-c1cnco1)C(=O)N(C)C1(CCN(C(=O)N(C)c3ccccc3)C1)N2 (stereo unspecified) | 64 | 144 |  |  | 860
COC(=O)[C@H]1C[C@@]2(CN1C(=O)OC(C)(C)C)Nc1cc(OC)c(-c3cnco3)cc1C(=O)N2C |  |  | 26 |  | 
COc1cc2c(cc1-c1cnco1)C(=O)N(C)C1(CCN(C(=O)N(C)c3ccc(F)cc3F)C1)N2 (stereo unspecified) | 51 | 97 |  |  | 1200
COc1cc2c(cc1-c1cnco1)C(=O)N(C)C1(CCN(C(=O)N3CCCCC3)C1)N2 (stereo unspecified) | 68 | 152 |  |  | 1800
COc1cc2c(cc1-c1cnco1)C(=O)N(C)C1(Cc3ccsc3C1)N2 (stereo unspecified) | 96 |  |  |  | 1900
COc1cc2c(cc1-c1cnco1)C(=O)N(C)C1(CCN(C(=O)Nc3ccccc3)C1)N2 (stereo unspecified) | 393 | 19 |  |  | 16000
COC(=O)[C@H]1C[C@]2(CN1C(=O)OC(C)(C)C)Nc1cc(OC)c(-c3cnco3)cc1C(=O)N2C | 35 | 18 |  |  | 1500
COc1cc2c(cc1-c1cnco1)C(=O)N(C)C1(CCCC1)N2 | 328 |  |  |  | 8500
COc1cc2c(cc1-c1cnco1)C(=O)N(CCc1ccncc1)C(C)(C)N2 | 300 |  |  |  | 37000
COc1cc2c(cc1-c1cnco1)C(=O)N(C)C(C)(C)N2 | 192 |  |  | 77 (≈ 268 µM) | 21000
COc1cc2[nH]c(=O)n(C)c(=O)c2cc1-c1cnco1 |  |  |  | 3 (≈ 11 µM) | 4000
COc1cc2c(cc1-c1cnco1)C(=O)N(C)C1(CCOCC1)N2 | 526 |  |  |  | 11600

Second part, led by results:

IC50 [1] [nM] | microsomal CLint [2] [µL/min/mg] | inhibition [3] [%] | solubility [4] [µg/mL] | SMILES | IC50 (PBMC) [nM]
119 | 11 |  |  | CCNC(=O)N1CCC2(C1)Nc1cc(OC)c(-c3cnco3)cc1C(=O)N2C (stereo unspecified) | 7200
94 | 46 |  |  | COc1cc2c(cc1-c1cnco1)C(=O)N(C)C1(CCN(C(=O)C(C)(C)C)C1)N2 (stereo unspecified) | 540
369 |  |  |  | COC(=O)[C@@H]1C[C@]2(CN1C(=O)OC(C)(C)C)Nc1cc(OC)c(-c3cnco3)cc1C(=O)N2C | 
80 | 24 |  |  | CCOC(=O)N1CCC2(C1)Nc1cc(OC)c(-c3cnco3)cc1C(=O)N2C (stereo unspecified) | 1200
948 |  |  |  | COC(=O)[C@@H]1C[C@@]2(CN1C(=O)OC(C)(C)C)Nc1cc(OC)c(-c3cnco3)cc1C(=O)N2C | 
104 | 42 |  | 101 (≈ 244 µM) | COc1cc2c(cc1-c1cnco1)C(=O)N(C)C1(CCN(C(=O)OC(C)(C)C)C1)N2 (stereo unspecified) | 970
79 | 38 |  |  | COc1cc2c(cc1-c1cnco1)C(=O)N(C)C1(CCN(C(=O)N(C)OC)C1)N2 (stereo unspecified) | 1900
45 | 92 |  | 813 (≈ 1970 µM) | CCN(CC)C(=O)N1CCC2(C1)Nc1cc(OC)c(-c3cnco3)cc1C(=O)N2C (stereo unspecified) | 540
71 | 612 |  |  | COc1cc2c(cc1-c1cnco1)C(=O)N(C)C1(CCN(C(=O)N(C(C)C)C(C)C)C1)N2 (stereo unspecified) | 70
